According to the NIST ThermoML archive (doi:10.1016/j.jct.2010.07.006):
Several values for one entry are separate records, joined by “and”; a condition that tells them apart may be missing. Equal entries are not always repeated.

Details: Crystal, Calculated from knudsen effusion weight loss

Cc1cc(C(=O)O)c(C)o1 [2,5-dimethyl-3-furancarboxylic acid]
Details	vapor or sublimation pressure
309.19 K	0.0001409 kPa and 0.000132 kPa and 0.0001359 kPa
311.12 K	0.0001806 kPa and 0.0001768 kPa and 0.0001708 kPa
313.08 K	0.0002273 kPa and 0.0002279 kPa and 0.0002259 kPa
315.18 K	0.0002809 kPa and 0.0002804 kPa and 0.0002914 kPa
317.12 K	0.0003673 kPa and 0.0003617 kPa and 0.0003524 kPa
319.08 K	0.0004503 kPa and 0.0004556 kPa and 0.000449 kPa
321.18 K	0.0005801 kPa and 0.0005612 kPa and 0.000567 kPa
323.09 K	0.0007336 kPa and 0.0007218 kPa and 0.0007101 kPa
325.07 K	0.0009185 kPa and 0.000908 kPa and 0.0008953 kPa
325.19 K	0.0009292 kPa and 0.000927 kPa and 0.0008864 kPa
327.1 K	0.001147 kPa and 0.001128 kPa and 0.001102 kPa
